Reference: PMC8113725, “Structure–activity relationship of ipglycermide binding to phosphoglycerate mutases” (The Journal of Biological Chemistry, 2021)
Bridge positions count the residues as written; N and C are the ends. Square brackets hold non-standard residues; d marks the D form. Peptide text beside a SMILES is read from it. Phe(4-F) = N[C@@H](Cc1ccc(F)cc1)C(=O)O

Columns and labels:
D. immitis iPGM = D. immitis iPGM (Dirofilaria immitis, UniProt F4ZE01); assay: biochemical
E. coli iPGM = E. coli iPGM (Escherichia coli, UniProt P37689); assay: biochemical; conditions: […]

Row | Structure (SMILES) | IC50 (D. immitis iPGM; Di iPGM Ave IC50 (M)) | IC50 (E. coli iPGM) | IC50 (D. immitis iPGM; IC50 (M))
1 | CC(C)C[C@H](NC(=O)[C@H](Cc1ccc(O)cc1)NC(=O)[C@@H]1CSCC(=O)N[C@H](Cc2ccc(O)cc2)C(=O)N[C@@H](CC(=O)O)C(=O)N[C@@H](Cc2ccc(F)cc2)C(=O)N2CCC[C@H]2C(=O)NCC(=O)N[C@@H](CC(=O)O)C(=O)N[C@@H](Cc2ccc(O)cc2)C(=O)N1)C(=O)N[C@@H](Cc1ccc(O)cc1)C(=O)NCC(=O)N[C@H](C(=O)N[C@@H](CS)C(N)=O)[C@@H](C)O [Ce-2 Y3(4F)F] ({CH2CO}-[dY]D[Phe(4-F)]PGDYCYLYGTC-NH2; thioether N-8) | 1.52e-09 M | 4180 nM | –
2 | CC(C)C[C@H](NC(=O)[C@H](Cc1ccc(O)cc1)NC(=O)[C@@H]1CSCC(=O)N[C@H](Cc2ccc(O)cc2)C(=O)N[C@@H](CC(=O)O)C(=O)N[C@@H](Cc2ccc(O)cc2)C(=O)N2CCC[C@H]2C(=O)NCC(=O)N[C@@H](CC(=O)O)C(=O)N[C@@H](Cc2ccc(F)cc2)C(=O)N1)C(=O)N[C@@H](Cc1ccc(O)cc1)C(=O)NCC(=O)N[C@H](C(=O)N[C@@H](CS)C(N)=O)[C@@H](C)O [Ce-2 Y7(4F)F] | 1.67e-09 M | 12800 nM | –
3 | CC(C)C[C@H](NC(=O)[C@H](Cc1ccccc1)NC(=O)[C@@H]1CSCC(=O)N[C@H](Cc2ccc(O)cc2)C(=O)N[C@@H](CC(=O)O)C(=O)N[C@@H](Cc2ccc(O)cc2)C(=O)N2CCC[C@H]2C(=O)NCC(=O)N[C@@H](CC(=O)O)C(=O)N[C@@H](Cc2ccccc2)C(=O)N1)C(=O)N[C@@H](Cc1ccc(O)cc1)C(=O)NCC(=O)N[C@H](C(=O)N[C@@H](CS)C(N)=O)[C@@H](C)O [Ce-2 Y7F, Y9F] ({CH2CO}-[dY]DYPGDFCFLYGTC-NH2; thioether N-8) | 2.07e-08 M | 4460 nM | 2.03e-08 M
4 | CC(C)C[C@H](NC(=O)[C@H](Cc1ccc(O)cc1)NC(=O)[C@@H]1CSCC(=O)N[C@H](Cc2ccc(O)cc2)C(=O)N[C@@H](CC(=O)O)C(=O)N[C@@H](Cc2ccc(O)cc2)C(=O)N2CCC[C@H]2C(=O)NCC(=O)N[C@@H](CC(=O)O)C(=O)N[C@@H](Cc2ccccc2)C(=O)N1)C(=O)N[C@@H](Cc1ccc(O)cc1)C(=O)NCC(=O)N[C@H](C(=O)N[C@@H](CS)C(N)=O)[C@@H](C)O [Ce-2 Y7F] | 1.73e-09 M | 1170 nM | 1.78e-09 M
5 | CC(C)C[C@H](NC(=O)[C@H](Cc1ccc(F)cc1)NC(=O)[C@@H]1CSCC(=O)N[C@H](Cc2ccc(O)cc2)C(=O)N[C@@H](CC(=O)O)C(=O)N[C@@H](Cc2ccc(O)cc2)C(=O)N2CCC[C@H]2C(=O)NCC(=O)N[C@@H](CC(=O)O)C(=O)N[C@@H](Cc2ccc(O)cc2)C(=O)N1)C(=O)N[C@@H](Cc1ccc(O)cc1)C(=O)NCC(=O)N[C@H](C(=O)N[C@@H](CS)C(N)=O)[C@@H](C)O [Ce-2 Y9(4F)F] ({CH2CO}-[dY]DYPGDYC[Phe(4-F)]LYGTC-NH2; thioether N-8) | 2.8e-09 M | 6930 nM | –
6 | CC(C)C[C@H](NC(=O)[C@H](Cc1ccccc1)NC(=O)[C@@H]1CSCC(=O)N[C@H](Cc2ccc(O)cc2)C(=O)N[C@@H](CC(=O)O)C(=O)N[C@@H](Cc2ccc(O)cc2)C(=O)N2CCC[C@H]2C(=O)NCC(=O)N[C@@H](CC(=O)O)C(=O)N[C@@H](Cc2ccc(O)cc2)C(=O)N1)C(=O)N[C@@H](Cc1ccc(O)cc1)C(=O)NCC(=O)N[C@H](C(=O)N[C@@H](CS)C(N)=O)[C@@H](C)O [Ce-2 Y9F] ({CH2CO}-[dY]DYPGDYCFLYGTC-NH2; thioether N-8) | 2.69e-09 M | 815 nM | 2.79e-09 M
7 | CC(C)C[C@H](NC(=O)[C@H](Cc1ccc(O)cc1)NC(=O)[C@@H]1CSCC(=O)N[C@H](Cc2ccc(O)cc2)C(=O)N[C@@H](CC(=O)O)C(=O)N[C@@H](Cc2ccc(O)cc2)C(=O)N2CCC[C@H]2C(=O)NCC(=O)N[C@@H](CC(=O)O)C(=O)N[C@@H](Cc2ccc(O)cc2)C(=O)N1)C(=O)N[C@@H](Cc1ccc(O)cc1)C(=O)NCCCC(=O)N[C@@H](CS)C(N)=O [Ce-2 [12-13]GABA] | 2.85e-09 M | 2980 nM | –
8 | CC(C)C[C@H](NC(=O)[C@H](Cc1ccc(O)cc1)NC(=O)[C@@H]1CSCC(=O)N[C@H](Cc2ccc(O)cc2)C(=O)N[C@@H](CC(=O)O)C(=O)N[C@@H](Cc2ccc(O)cc2)C(=O)N2CCC[C@H]2C(=O)N[C@@H](CC(C)C)C(=O)N[C@@H](CC(=O)O)C(=O)N[C@@H](Cc2ccc(O)cc2)C(=O)N1)C(=O)N[C@@H](Cc1ccc(O)cc1)C(N)=O [Ce-2d G5L] | – | 13200 nM | –
